Entries after “also recorded” stand apart in the source; their conditions may differ.
How the values were obtained:
[1] = tested on: MIA PaCa2 cells; experiment: Cell viability/proliferation, MIA PaCa2; format: cell-based, human; settings: in vitro; metformin 500 μM, simvastatin 4 μM, digoxin 50 nM, alone or combined; paclitaxel 100 nM where added
[2] = tested on: BIRC5 mRNA; experiment: BIRC5 mRNA expression in PDCL5 in vitro; format: cell-based, human
[3] = tested on: BIRC5 mRNA; experiment: BIRC5 mRNA expression in PDCL15 in vitro; format: cell-based, human
[4] = tested on: BIRC5 promoter; experiment: High-throughput drug screening with BIRC5 synthetic promoter; format: cell-based, human; settings: high-throughput screening of FDA-approved drug libraries, MIA PaCa2 cells
Excerpt: FIG. 12 is a graph illustrating BIRC5 SP high-throughput (HTS) drug screening in MIA PaCa2 cells, in accordance with one or more embodiments of the invention;
Pancreatic ductal adenocarcinoma (PDAC) is one of the most deadly forms of cancer and almost all patients with PDAC succumb to this lethal disease within months of diagnosis. To fight against PDAC, we utilized the concept of an “actionable gene”, on which action can be taken to alter disease progression or guide choice of therapy. We have identified actionable gene, BIRC5, for PDAC using microarray data sets and our own RNA-Seq data of PDAC patient specimens. […] .

[5] = mice; cited from earlier work
[6] = tested on: AsPC1 cells; experiment: Cell viability, AsPC1; format: cell-based, human; settings: in vitro
[7] = tested on: patient-derived pancreatic cancer cell line #15 (PDCL-15); experiment: Cell viability/proliferation (CellTiter-Glo, Gaussia luciferase), patient-derived line #15; format: cell-based, human; settings: in vitro; metformin 500 μM, simvastatin 4 μM, digoxin 50 nM, alone or combined; paclitaxel 100 nM where added
[8] = tested on: DUSP15 and RHOB; experiment: Cell death/apoptosis related gene expression in PDCL5 (RNA-Seq, real-time PCR); settings: PDCL5 in vitro
[9] = tested on: Capan2 cells; experiment: Cell viability, Capan2; format: cell-based, human; settings: in vitro, with and without paclitaxel
[10] = tested on: BIRC5; experiment: Cardiac glycosides, BIRC5 expression in pancreatic cancer; format: cell-based
[11] = tested on: PANC1 cells; experiment: Cell viability/proliferation, PANC1; format: cell-based, human; settings: in vitro; metformin 500 μM, simvastatin 4 μM, digoxin 50 nM, alone or combined; paclitaxel 100 nM where added
[12] = tested on: patient-derived pancreatic cancer cell line #5 (PDCL-5); experiment: Cell viability/proliferation (CellTiter-Glo, Gaussia luciferase), patient-derived line #5; format: cell-based, human; settings: in vitro; metformin 500 μM, simvastatin 4 μM, digoxin 50 nM, alone or combined; paclitaxel 100 nM where added
[13] = tested on: HK2, LDHA, LDHB, ENO2, ENO1; experiment: Transcriptome analysis of glycolysis/TCA cycle/Warburg effect genes in pancreatic cancer cell lines; settings: patient-derived and commercial pancreatic cancer cell lines
[14] = tested on: pancreatic cancer cell lines; experiment: Proliferation, viability and apoptosis of pancreatic cancer cell lines in vitro (line not specified); format: cell-based, human

Structure (SMILES) | cell viability / proliferation, MIA PaCa2 [1] | BIRC5 mRNA expression, PDCL #5 [2] | BIRC5 mRNA expression, PDCL #15 [3] | BIRC5 expression in pancreatic cancer [10] | other results
CC[C@H](C)C(=O)O[C@H]1C[C@@H](C)C=C2C=C[C@H](C)[C@H](CC[C@@H]3C[C@@H](O)CC(=O)O3)[C@H]21 [Lovastatin, lovastatin] | suppresses | suppress | suppress | – | –
CC(C)n1c(/C=C/C(O)CC(O)CC(=O)O)c(-c2ccc(F)cc2)c2ccccc21 (centres unmarked) [fluvastatin] | suppresses | suppress | suppress | – | –
C[C@H]1O[C@@H](O[C@H]2[C@@H](O)C[C@H](O[C@H]3[C@@H](O)C[C@H](O[C@H]4CC[C@@]5(C)[C@H](CC[C@@H]6[C@@H]5C[C@@H](O)[C@]5(C)[C@@H](C7=CC(=O)OC7)CC[C@]65O)C4)O[C@@H]3C)O[C@@H]2C)C[C@H](O)[C@@H]1O [Digoxin, digoxin] | suppresses; also recorded: suppress | suppress | suppress | inhibit BIRC5 expression | expression from the BIRC5 promoter [4]: target BIRC5; Lethal Dose (LD50) [5]: 4 mg/kg; cell viability, AsPC1 [6]: suppress; cell viability / proliferation, patient-derived pancreatic cancer cell #15 [7]: suppresses; also recorded: suppress; cell death/apoptosis related gene expression (DUSP15, RHOB) [8]: do not have an effect; cell viability, Capan2 [9]: suppress; cell viability / proliferation, PANC1 [11]: suppresses; also recorded: suppress; cell viability / proliferation, patient-derived pancreatic cancer cell #5 [12]: suppresses; also recorded: suppress
C[C@]12CC[C@H](O)C[C@H]1CC[C@@H]1[C@@H]2CC[C@]2(C)[C@@H](c3ccc(=O)oc3)CC[C@]12O [bufalin] | – | – | – | inhibit BIRC5 expression | –
C[C@@H]1O[C@@H](O[C@H]2C[C@@H](O)[C@]3(CO)[C@H]4[C@H](O)C[C@]5(C)[C@@H](C6=CC(=O)OC6)CC[C@]5(O)[C@@H]4CC[C@]3(O)C2)[C@H](O)[C@H](O)[C@H]1O [Ouabain, ouabain] | suppresses | – | – | inhibit BIRC5 expression | –
CN(C)C(=N)N=C(N)N [Metformin, metformin] | suppresses; also recorded: suppress | suppress | suppress | – | glycolysis / TCA cycle / Warburg effect related gene expression [13]: inhibitory effect; expression from the BIRC5 promoter [4]: target BIRC5; cell proliferation / viability, pancreatic cancer cell lines [14]: suppresses; cell viability, AsPC1 [6]: suppress; cell viability / proliferation, patient-derived pancreatic cancer cell #15 [7]: suppresses; also recorded: suppress; cell death/apoptosis related gene expression (DUSP15, RHOB) [8]: do not have an effect; cell viability, Capan2 [9]: suppress; cell viability / proliferation, PANC1 [11]: suppresses; also recorded: suppress; cell viability / proliferation, patient-derived pancreatic cancer cell #5 [12]: suppresses; also recorded: suppress
C[C@]12CC[C@H](O)C[C@H]1CC[C@@H]1[C@@H]2CC[C@]2(C)[C@@H](C3=CC(=O)OC3)CC[C@]12O [Digitoxigenin] | – | – | – | inhibit BIRC5 expression | –
CC(=O)O[C@H]1C[C@H](O[C@H]2[C@@H](O)C[C@H](O[C@H]3[C@@H](O)C[C@H](O[C@H]4CC[C@@]5(C)[C@H](CC[C@@H]6[C@@H]5C[C@@H](O)[C@]5(C)[C@@H](C7=CC(=O)OC7)CC[C@]65O)C4)O[C@@H]3C)O[C@@H]2C)O[C@H](C)[C@H]1O[C@@H]1O[C@H](CO)[C@@H](O)[C@H](O)[C@H]1O [Lanatoside C] | – | – | – | inhibit BIRC5 expression | –

From patent US10813909B2 (THE REGENTS OF THE UNIVERSITY OF CALIFORNIA, priority 2016, dated 2020)
